Molecules are shown by their SMILES. Where only a bound is given, the exact number is not on record here.

We go through 34 compounds from a melting point compilation (Tetko et al.; mined from patent text by program, amines drawn as free bases though some values may be those of a salt).

`C=CCOC(=O)C1=C(C)NC(C)=C(C(=O)OC)C1c1cccc([N+](=O)[O-])c1` (single isomer, unassigned; (-)) had a melting point of 215 to 217 °C.
`CCOc1cc(N(Cc2cncnc2)c2ccc(C(=O)O)cc2)ccc1OC(F)F` displayed a melting point of 165 to 166 °C.
For `CCN1CCN(c2ccnc(-c3nc(=O)c4ccccc4s3)c2)C1=O`, the melting point is 212 to 213 °C.
Compound `Cc1nnc2ccc(-c3cccc(CC(=O)NC(C)C)c3)nn12` registered a melting point of 197 to 200 °C.
`CCc1c(C#N)oc(=O)n1S(=O)(=O)c1c(C)noc1C`: the melting point was in the range of 117 to 122 °C.
The result for `CC1(C)OCC(CCn2cnc3c(N)nc(N)nc32)CO1` reads 202 to 204 °C; that for `Cc1ccc(Cn2nc(-c3cc(C(C)(C)C)c(O)c(C(C)(C)C)c3)c3cccnc32)cc1`, 134 to 135 °C.
The result for `CC(C)Nn1nnnc1S` reads 92 to 95 °C; that for `CN1CCN(c2cc3c(cc2F)c(=O)c(C(=O)O)cn3C2CC2)CC1c1ccco1` (centres undefined), 122 to 124 °C.
The figure for `CON=C(C(=O)O)c1nc(NC=O)sc1Br` is 165 to 167 °C; for `Cc1cccc(NC(=O)NCC(=O)N(c2ccccc2)c2ccccc2)c1` it is 240 °C.
Take `S=C1NCSc2ccsc21`: the melting point fell in the range of 136 to 138 °C.
Compound `COc1ccc(C(=O)C=Cc2cc(O)c(O)c([N+](=O)[O-])c2)cc1OC` registered a melting point of 206 to 208 °C.
Turning to `COc1ccc(CSc2nnc(-c3ccnc(NC(=O)CCc4ccccc4)c3)o2)cc1C#N`, the melting point was in the range of 176 to 177 °C.
Compound `CN(C)c1nc2cc(NC(=O)c3c(C(=O)N4CCOCC4)cnn3C)ccn2n1` displayed a melting point of 196 to 198 °C.
With `O=C1Nc2cc(Cl)ccc2C1(Br)Br`, the melting point lay in the range of 127 to 130 °C.
Regarding `O=C(Cn1c(-c2cccc(Cl)c2)nc2cccnc21)NCCN1CCCCC1`, the melting point is 114 to 115 °C.
Compound `Nc1cc(C(=O)c2cc3ccccc3o2)ccc1Cl` returned a melting point of 137 °C.
For `CCCC(=O)Nc1n[nH]c2cc(Cl)c(-c3ccncc3)cc12`, the melting point came out at 260 °C.
`COc1ccccc1N1CCN(CCN(C(=O)C2CCCCC2)c2ccccc2N)CC1` displayed a melting point of 138 to 140 °C.
Regarding `COC(=O)CCc1nc(CCc2ccc(C(=O)OC)cc2)ccc1O`, the melting point fell in the range of 137 to 139 °C.
Consider `NS(=O)(=O)c1ccc(-c2c(-c3ccccc3)noc2CC(=O)O)cc1`, for which the melting point came out at 61 °C.
As to `CN(C)C(=S)Oc1ccc(C(=O)c2ccc(C#N)cc2)cc1`, the melting point was 162 °C.
The figure for `Clc1cnc2cccc(Cl)c2n1` is 120 to 122 °C; for `CCOC(=O)c1c(-c2ccc(F)cc2)cc(-c2ccccc2Cc2ccccc2)nc1C(C)C` it is 94 to 97 °C; for `O=C1c2ccccc2S(=O)(=O)N1CCCCN1CCC2(CC1)Cc1ccccc1O2` it is 98 to 100 °C.
In turn, `CN1C(=O)N(c2ccc(Cl)cc2)S(=O)(=O)c2ccc(OCC(=O)O)cc21` gave a melting point of 228 to 230 °C.
For `O=C(Nc1ccc(F)nc1)N1CCN(c2ccnc(-c3cccc(F)c3F)n2)CC1`, the melting point is 192 to 193 °C.
Compound `COCOc1cc(Cl)ccc1-c1cc(-c2cccc([N+](=O)[O-])c2)c(C#N)c(NC(=O)c2ccco2)n1` showed a melting point of 154 to 155 °C.
The figure for `COC(=O)[C@@]12CO[C@@H](C(C)(C)C)N1C(=O)[C@](Cc1ccccc1)(C(=O)O)C2` is more than 133 °C; for `Cn1cc(C2=C(c3c4n(c5ccccc35)CC(CCO)CC4)C(=O)NC2=O)c2ccccc21` (centres undefined) it is 236 to 238 °C; for `CC(C)N(CCN1C(=O)/C(=N/NC(N)=O)c2cc(F)ccc21)C(C)C` it is 158 to 160 °C.
Turning to `COc1ccc(C(=O)Nc2cc(NC(=O)c3cccc(N(C)C)c3)ccc2F)cc1OC`, the melting point was in the range of 187 to 188 °C.
`CC1(C)CC(c2ncccn2)c2cc(C#N)ccc2O1` (centres undefined) displayed a melting point of 109 to 111 °C.
